Reference: patent US7674771B2, “Antimicrobial peptides and utilization of the same” (Toagosei Co., Ltd, priority 2003, dated 2010)
Where two headings read alike, the source gives them in different places. Peptide text beside a SMILES is read from it.

Experiments:
[1] = system: Escherichia coli IFO 3972; assay: MIC by liquid medium dilution technique, 96-well microplate, gram-negative bacteria; type: cell-based
Procedure: (§1) Regarding the antimicrobial peptide (samples 1 to 20) related to the present invention, the antimicrobial activities (minimum inhibitory concentration: MIC) with respect to gram-negative bacteria (Escherichia coli IFO 3972) and gram-positive bacteria (Staphylococcus aureus IFO 12732) were determined by a liquid medium dilution technique using a 96-well microplate.
(§2) First, a drug (synthesized polypeptide) solution having a concentration of 40 times of the highest test concentration was prepared using sterile distilled water, and liquid-bouillon mediums (more specifically, “Mueller Hinton Broth” manufactured by DIFCO) including cation and having drug concentrations of 100, 50, 25, 12.5, 6.3, 3.1, 1.6 and 0.8 μM were respectively produced. The cation included was prepared as follows: dissolving 3.68 g of CaCl2.2H2O in 100 mL of purified water (10 mg.Ca^2+/mL), and thereafter adding 500 μL thereof into 100 mL of Mueller Hinton Broth; and dissolving 8.36 g of MgCl2.6H2O in 100 mL of purified water (10 mg.Mg^2+/mL), and thereafter adding 250 μL thereof into 100 mL of Mueller Hinton Broth. Thereafter, the produced liquid-bouillon mediums including the drug of each concentration were then fed to the 96-well microplate at […] a time.
(§3) At the same time, test bacteria cultured for 18 hours at 37° C. on an agar plate (“Muller Hinton Agar” manufactured by DIFCO) were gathered by scratching with a loop, and then suspended in a sterilized physiological saline. Bacterial suspension 5 μL prepared at an equivalent of 2×10^7 cells/mL was respectively inoculated (number of bacteria to be tested: approximately 1×10^6 cells/mL) onto the drug solution and fed to each well of the above-described microplate. After inoculation, the microplate was then incubated in an incubator at 37° C., and the presence of bacteria was evaluated based on the turbidity 24 hours later. The minimum drug concentration (polypeptide concentration), in which an increased in turbidity caused by bacteria was not detected at the time of measurement, was defined as MIC (minimum inhibitory concentration) (unit: μM) in the present embodiment. In addition, MIC were determined in the same manner using polymyxin B as a comparison.

[2] = system: Staphylococcus aureus IFO 12732; type: cell-based
Procedure: as §1, §2, §3

[3] = Mueller Hinton Broth with cation, 37° C., turbidity after 24 hours

Molecule	Antimicrobial Activities (MIC) E. coli ([1]; IFO 3972, 24 h) [µM]	Antimicrobial Activities (MIC) S. aureus ([2]; IFO 12732, 24 h) [µM]	Antimicrobial Activities (MIC) E. coli [1, 3] [µM]	Antimicrobial Activities (MIC) S. aureus [2, 3] [µM]
H-LMWWML-NH2 [comparative sample 3, LMWWML-CONH2, reference compound]	>100	>100		
H-LKRKLQRLMWWMLR-NH2 [sample 18, LKRKLQRLMWWMLR-CONH2]	12.5	6.3		
H-RKKKRKVYIGSR-NH2 [comparative sample 7, RKKKRKVYIGSR-CONH2, reference compound]	100	12.5		
H-LMWWMLRKKKRKV-NH2 [sample 5, LMWWMLRKKKRKV-CONH2]	50	3.1		
H-RKKKRKVLLTAKMR-NH2 [sample 10, RKKKRKVLLTAKMR-CONH2]	50	12.5		
H-RKKKRKVFFYMVIR-NH2 [sample 11, RKKKRKVFFYMVIR-CONH2]	6.3	3.1		
H-LMWWMLRIRKKLRVGR-NH2 [sample 20, LMWWMLRIRKKLRVGR-CONH2]	6.3	3.1		
H-RKRRLMWWMLKKLR-NH2 [sample 17, RKRRLMWWMLKKLR-CONH2]	6.3	3.1		
H-RKKKRKVVVYWLLR-NH2 [sample 9, RKKKRKVVVYWLLR-CONH2]	12.5	3.1		
C[C@@H](O)[C@H](N)C(=O)NCC(=O)N[C@H](C(=O)NCC(N)=O)[C@@H](C)O [comparative sample 2, TGTG-CONH2, reference compound] (H-TGTG-NH2)	>100	>100		
H-RKRKRKRLMWWML-NH2 [sample 13, RKRKRKRLMWWML-CONH2]	6.3	3.1		
H-RKKKRKVLYLGAVR-NH2 [sample 12, RKKKRKVLYLGAVR-CONH2]	50	12.5		
H-RIRKKLRYIGSR-NH2 [comparative sample 6, RIRKKLRYIGSR-CONH2, reference compound]	>100	50		
H-RLLTAKMLMWWMLR-NH2 [comparative sample 5, RLLTAKMLMWWMLR-CONH2, reference compound]	>100	12.5		
H-RAVTLYLGAVAA-NH2 [comparative sample 4, RAVTLYLGAVAA-CONH2, reference compound]			>100	>100
H-RKKRRQRRRLMWWML-NH2 [sample 19, RKKRRQRRRLMWWML-CONH2]	12.5	6.3		
H-RKKKRKVLMWWML-NH2 [sample 2, RKKKRKVLMWWML-CONH2]	12.5	3.1		
